Measurements as given in patent publication US11261201B2 (priority 2018, dated 2022).
In brackets after ≈: the same amount, converted by molar mass. Structures can show the parent of a compound that is named as a salt. Where two headings read alike, the source gives them in different places.

How the values were obtained:
E. coli = experiment: Gram negative MIC protocol (OD600, LB, 24 h); settings: Escherichia coli
Experimental: (§1) Overnight bacterial cultures were grown in LB with no added antibiotics at 37° C. with shaking. A 1:1000 dilution of these cultures into LB was exposed to concentration gradients of compounds in 96-well plates (100 μL per well assay volume). Resulting plates were incubated at 37° C. for 24 h without shaking, and OD600 was measured at the end of the incubation. MICs were determined as the lowest concentrations at which OD600 remained at baseline.

A. baumannii = experiment: Gram negative MIC protocol (OD600, LB, 24 h); settings: Acinetobacter baumannii
Experimental: as §1

H37RvMA = experiment: Tuberculosis Alamar Blue/Resazurin assay (MIC); type: cell-based; settings: read-out: WT H37Rv MTB Activity
[1] = read-out: MIC E. coli delta-TolC LB Media, E. coli delta-TolC strain, LB media, 24 h, OD600
[2] = read-out: MIC WT E. coli LB Media, wild-type E. coli, LB media, 24 h, OD600
[3] = read-out: MIC A. baumannii LB Media, A. baumannii, LB media, 24 h, OD600
[4] = Mycobacterium tuberculosis, H37RV, WT H37Rv MTB

| Structure (SMILES) | MIC (E. coli; [1]) | MIC (E. coli; [2]) | MIC (A. baumannii; [3]) | MIC (H37RvMA; WT H37Rv MTB) | MIC (H37RvMA; [4]) | MIC (A. baumannii; read-out: MIC A. baumannii LB Media) | MIC (H37RvMA; Mycobacterium tuberculosis, H37RV) |
| --- | --- | --- | --- | --- | --- | --- | --- |
| Cl.c1ccc(CNCC2CCCc3ccccc32)cc1 (centres unmarked) [B214, N-benzyl-1-(1,2,3,4-tetrahydronaphthalen-1-yl)methanamine hydrochloride] | > 300 µM | > 300 µM | > 300 µM | >150 µM |  |  |  |
| c1ccc(CNCCC2CCNCC2)cc1 [B215, N-benzyl-2-(piperidin-4-yl)ethanamine hydrochloride] | > 300 µM | > 300 µM | > 300 µM |  | > 150 µM |  |  |
| CC(C)(C)OC(=O)N1CCC(CCNCc2ccccc2)CC1 [B216, tert-butyl 4-(2-(benzylamino)ethyl) piperidine-1-carboxylate] | > 300 µM | > 300 µM | > 300 µM |  | > 150 µM |  |  |
| C[C@@H](Cc1ccccc1)NCc1ccccc1 [B217] | > 300 µM | > 300 µM |  |  |  | > 300 µM | > 150 µM |
| O=C1CCC(CCNCc2ccccc2)CC1 [B218, 4-(2-(benzylamino)ethyl) cyclohexanone] | > 300 µM | > 300 µM | > 300 µM |  | > 150 µM |  |  |
| CC(/C=C/C1CCCCC1)NCc1ccccc1 (centres unmarked) [B219, (E)-N-benzyl-4-cyclohexylbut-3-en-2-amine] | > 300 µM | > 300 µM | > 300 µM |  | > 150 µM |  |  |
| COc1cccc2c1B(O)OC2CNCc1ccccc1 (centres unmarked) [B220, 3-((benzylamino)methyl)-7-methoxybenzo[c][1,2]oxaborol-1(3H)-ol hydrochloride] | > 300 µM | > 300 µM | > 300 µM |  | > 150 µM |  |  |
| CC1CCC(CCNCc2ccccc2)CC1 (centres unmarked) [B221] | 150 µM (≈ 34.7 µg/mL) | 300 µM (≈ 69.4 µg/mL) | 220 µM (≈ 50.9 µg/mL) |  | 150 µM (≈ 34.7 µg/mL) |  |  |
| c1ccc(CNCCC2CCCCO2)cc1 (centres unmarked) [B222] | > 150 µM | > 300 µM | > 300 µM |  | > 150 µM |  |  |
| c1ccc(CNCCN2CCCCC2)cc1 [B223] | > 150 µM | > 300 µM | > 300 µM |  | > 150 µM |  |  |
| c1ccc(CNCCC2CCCNC2)cc1 (centres unmarked) [B224] | > 150 µM | > 300 µM | > 300 µM |  | > 150 µM |  |  |
| FC(F)(F)c1ccccc1CNCCC1CCCCC1 [B225, 2-cyclohexyl-N-(2-(trifluoromethyl)benzyl)ethanamine hydrochloride] | > 150 µM | > 300 µM | 300 µM |  | > 150 µM |  |  |
| Oc1ccccc1CNCCC1CCCCC1 [B226, 2-((2-cyclohexylethylamino)methyl)phenol] | 33 µM (≈ 7.7 µg/mL) | 54 µM (≈ 12.6 µg/mL) | 54 µM (≈ 12.6 µg/mL) |  | 33 µM (≈ 7.7 µg/mL) |  |  |
| CC(C)c1ccccc1CNCCC1CCCCC1 [B227, 2-cyclohexyl-N-(2-isopropylbenzyl)ethanamine hydrochloride] | 12 µM | 170 µM | 170 µM |  | 150 µM |  |  |
| CCc1ccccc1CNCCC1CCCCC1 [B228, 2-cyclohexyl-N-(2-ethylbenzyl)ethanamine hydrochloride] | 20 µM | 170 µM | 300 µM |  | 91 µM |  |  |
| c1ccc(-c2ccccc2CNCCC2CCCCC2)cc1 [B229, N-(biphenyl-2-ylmethyl)-2-cyclohexylethanamine hydrochloride] | 7 µM | 170 µM | 96 µM |  | 33 µM |  |  |
| c1csc(-c2ccccc2CNCCC2CCCCC2)c1 [B230, 2-cyclohexyl-N-(2-(thiophen-2-yl)benzyl)ethanamine hydrochloride] | 4 µM | 96 µM | 96 µM |  | 55 µM |  |  |
| c1cncc(-c2ccccc2CNCCC2CCCCC2)c1 [B231, 2-cyclohexyl-N-(2-(pyridin-3-yl)benzyl)ethanamine hydrochloride] | 54 µM | 300 µM | > 300 µM |  | > 150 µM |  |  |
| c1ccc(Oc2ccccc2CNCCC2CCCCC2)cc1 [B232, 2-cyclohexyl-N-(2-phenoxybenzyl)ethanamine hydrochloride] | 17 µM | 170 µM | 96 µM |  | 91 µM |  |  |
| c1ccc(C2CC2)c(CNCCC2CCCCC2)c1 [B233, 2-cyclohexyl-N-(2-cyclopropylbenzyl)ethanamine hydrochloride] | 10 µM | 300 µM | 170 µM |  | 91 µM |  |  |
| c1ccc(-c2ccc3ccccc3c2)c(CNCCC2CCCCC2)c1 [B234, 2-cyclohexyl-N-(2-(naphthalen-2-yl)benzyl)ethanamine hydrochloride] | 10 µM | > 300 µM | 31 µM |  | 55 µM |  |  |
| Nc1ccccc1CNCCC1CCCCC1 [B235, 2-((2-cyclohexylethylamino)methyl)aniline hydrochloride] | 96 µM | 96 µM | > 300 µM |  | > 150 µM |  |  |
| c1coc(-c2ccccc2CNCCC2CCCCC2)c1 [B236, 2-cyclohexyl-N-(2-(furan-2-yl)benzyl)ethanamine hydrochloride] | 17 µM | 54 µM | 300 µM |  | 150 µM |  |  |
